According to patent publication US20120232049A1, “PYRIDINE OR PYRIMIDINE DERIVATIVE HAVING EXCELLENT CELL GROWTH INHIBITION EFFECT AND EXCELLENT ANTI-TUMOR EFFECT ON CELL STRAIN HAVING AMPLIFICATION OF HGFR GENE” (Eisai R&D Management Co., Ltd., priority 2007, published 2012):

How the values were obtained:
[1] = test system: MKN-45 (human gastric cancer cells); assay: Proliferation inhibitory effect against human cancer cells, MKN-45; type: cell-based; details: MKN-45, 72 h, c-met amplified cell, 3 days, Cell Counting Kit-8
Procedure: (§1) Six kinds of human cancer cells are suspended in RPMI1640 medium (purchased from Sigma) containing 10% FBS, respectively. The cell suspensions (MKN-45: 1.5×10^4 cells/ml, SNU-5: 5×10^4 cells/ml, EBC-1: 3×10^4 cells/ml, MKN-74: 2.5×10^4 cells/ml, SNU-1: 2.5×10^4 cells/ml, A549: 1.5×10^4 cells/ml) were added to a cell culture 96-well plate (purchased from NUNC, product number: 167008) at 0.1 ml/well, and cultured overnight in a 5% CO2 incubator (37° C.). After the culture, 0.1 ml of a test substance diluted with RPMI1640 medium containing 10% FBS and the culture was continued for 3 days in a 5% CO2 incubator (37° C.). After the culture, 10 μl of Cell Counting Kit-8 (purchased from DOJINDO, product number: 343-07623) was added to each well and the incubation was performed for 0.5 to 3 hours in a 5% CO2 incubator (37° C.). After the incubation, absorbance of each well was measured by a plate reader MTP-500 (Corona Electric Co., Ltd.) with measurement wavelength 450 nm and reference wavelength 660 nm.

[2] = test system: SNU-5 (human gastric cancer cells); assay: Proliferation inhibitory effect against human cancer cells, SNU-5; type: cell-based; details: SNU-5, 72 h, c-met amplified cell, 3 days, Cell Counting Kit-8
Procedure: as §1

[3] = test system: EBC-1 (human lung cancer cells); assay: Proliferation inhibitory effect against human cancer cells, EBC-1; type: cell-based; details: EBC-1, 72 h, c-met amplified cell, 3 days, Cell Counting Kit-8
Procedure: as §1

[4] = test system: MKN-74 (human gastric cancer cells); assay: Proliferation inhibitory effect against human cancer cells, MKN-74; type: cell-based; details: MKN-74, 72 h, c-met non-amplified cell, 3 days, Cell Counting Kit-8
Procedure: as §1

[5] = test system: SNU-1 (human gastric cancer cells); assay: Proliferation inhibitory effect against human cancer cells, SNU-1; type: cell-based; details: SNU1, 72 h, c-met non-amplified cell, 3 days, Cell Counting Kit-8
Procedure: as §1

[6] = test system: A549 (human lung cancer cells); assay: Proliferation inhibitory effect against human cancer cells, A549; type: cell-based; details: A549, 72 h, c-met non-amplified cell, 3 days, Cell Counting Kit-8
Procedure: as §1

[7] = test system: Human gastric cancer cells (MKN-45); assay: Tumor proliferation inhibitory effect against human cancer cells (MKN-45), subcutaneous transplant; type: in vivo, BALB/c(nu/nu) mice; details: orally twice a day, fifth day
Procedure: Human gastric cancer cells (MKN-45) were suspended in HBSS (purchased from GIBCO BRL). The cell suspension (5×10^7 cells/ml; 0.1 ml) was transplanted to the subcutaneous parts of the right flank of 7-week female BALB/c(nu/nu) mice. When the tumor volume reached 100-200 mm^3, mice were grouped so that the average of the tumor volume was equable in each group, and 0.5% methylcellulose in hydrochloric acid-glucose solution (0.1N hydrochloric acid:5% glucose solution=1:9) or a test substance suspended in dimethylsulfoxide-Tween-glucose solution (dimethylsulfoxide:Tween:5% glucose solution (containing equimolar hydrochloric acid of the test substance)=7:13:80) was orally administered to mice daily twice a day. The tumor volume was measured on the fifth day from the administration of the test substance. The long and short diameters of the tumor were measured with a caliper and the tumor volume was calculated according to the equation: 1/2×long diameter×short diameter×short diameter. The experiment was conducted in a control group (vehicle administered group) of 10 animals as well as in the test substance administered group of 5 animals. Tumor proliferation rate (%) was defined as the ration of the tumor volume of the test substance administered group to the tumor volume of control group and shown in table 9

[8] = 100 mg/kg weight/administration
[9] = 12.5 mg/kg weight/administration

Compound	IC50 [1] [nM]	IC50 [2] [nM]	IC50 [3] [nM]	IC50 [4] [nM]	IC50 [5] [nM]	IC50 [6] [nM]	tumor proliferation rate(%) ([7]; 30 mg/kg weight/administration)	tumor proliferation rate(%) [7, 8] [%]	tumor proliferation rate(%) [7, 9] [%]	tumor proliferation rate(%) ([7]; 1 mg/kg weight/administration)	tumor proliferation rate(%) ([7]; 3 mg/kg weight/administration)	tumor proliferation rate(%) ([7]; 10 mg/kg weight/administration)
CN1CCN(C2CCN(C(=O)Nc3cc(Oc4ccc(NC(=O)C5(C(=O)Nc6ccc(F)cc6)CC5)c(F)c4)ccn3)CC2)CC1 [Example 15, N-(2-Fluoro-4-{[2-({[4-(4-methylpiperazin-1-yl)piperidin-1-yl]carbonyl}amino)pyridin-4-yl]oxy}phenyl)-N-(4-fluorophenyl)cyclopropane-1,1-dicarboxamide]	15	6.2	17	4300	4200	2600	29.7	19.9				
O=C(Nc1cc(Oc2ccc(NC(=O)C3(C(=O)Nc4ccc(F)cc4)CC3)c(F)c2)ccn1)N1CCC1 [Example 61, N-[4-({2-[(Azetidin-1-ylcarbonyl)amino]pyridin-4-yl}oxy)-2-fluorophenyl]-N′-(4-fluorophenyl)cyclopropane-1,1-dicarboxamide]	60	38	65	4200	> 10000	> 10000			35.8			
O=C(Nc1cc(Oc2cc(F)c(NC(=O)C3(C(=O)Nc4ccc(F)cc4)CC3)cc2F)ccn1)N1CC(O)C1 [Example 91, N-{2,5-Difluoro-4-[(2-{([3-hydroxyazetidin-1-yl)carbonyl]amino}pyridin-4-yl)oxy]phenyl}-N′-(4-fluorophenyl)cyclopropane-1,1-dicarboxamide]	6	6	6.4	3000	2000	1900	19.6	16.0	22.9	73.0	55.5	27.4

Stronger by IC50 [1], values ahead:

IC50 [1] [nM]	IC50 [2] [nM]	IC50 [3] [nM]	IC50 [4] [nM]	IC50 [5] [nM]	IC50 [6] [nM]	Compound	tumor proliferation rate(%) ([7]; 30 mg/kg weight/administration)	tumor proliferation rate(%) [7, 8] [%]	tumor proliferation rate(%) [7, 9] [%]	tumor proliferation rate(%) ([7]; 1 mg/kg weight/administration)	tumor proliferation rate(%) ([7]; 3 mg/kg weight/administration)	tumor proliferation rate(%) ([7]; 10 mg/kg weight/administration)
3.8	1.7	3.8	2000	2300	2900	CN1CCN(C2CCN(C(=O)Nc3cc(Oc4cc(F)c(NC(=O)C5(C(=O)Nc6ccc(F)cc6)CC5)cc4F)ccn3)CC2)CC1 [Example 92, N-(2,5-Difluoro-4-{[2-({[4-(4-methylpiperazin-1-yl)piperidin-1-yl]carbonyl}amino)pyridin-4-yl]oxy}phenyl)-N′-(4-fluorophenyl)cyclopropane-1,1-dicarboxamide]			27.9			
2.3	1.7	2.4	1900	1600	1800	CN1CCC(N(C)C(=O)Nc2cc(Oc3cc(F)c(NC(=O)C4(C(=O)Nc5ccc(F)cc5)CC4)cc3F)ccn2)CC1 [Example 94, N-(2,5-Difluoro-4-{[2-({[methyl(1-methylpiperidin-4-yl)amino]carbonyl}amino)pyridin-4-yl]oxy}phenyl)-N′-(4-fluorophenyl)cyclopropane-1,1-dicarboxamide]						
4.7	4.9	4.5	3300	3600	2000	O=C(Nc1cc(Oc2cc(F)c(NC(=O)C3(C(=O)Nc4ccc(F)cc4)CC3)cc2F)ccn1)N1CC(CO)C1 [Example 96, N-(2,5-Difluoro-4-{[2-({[3-(hydroxymethyl)azetidin-1-yl]carbonyl}amino)pyridin-4-yl]oxy}phenyl)-N′-(4-fluorophenyl)cyclopropane-1,1-dicarboxamide]						
